Reference: publication PMC10755728, “Inhibitors of the Elastase LasB for the Treatment of Pseudomonas aeruginosa Lung Infections” (ACS Central Science, 2023)

Key:
[1] = molecular target: T1, LasB (Pseudomonas aeruginosa, UniProt Q02RJ6); assay: biochemical; format: biochemical; settings: for inhibition at 100 µM: read-out: % inh LasB @100 µM; for IC50: LasB IC50, FRET-based assay
T1 construct: made in house

[2] = molecular target: T2, MMP-1 (Homo sapiens, UniProt P03956); assay: MMP-1 inhibition assay; format: biochemical; settings: 100 μM; read-out: % inhibition MMP-1
T2 construct: purchased AnaSpec (Fremont, CA, USA)
T2 sequence (P03956 100-469): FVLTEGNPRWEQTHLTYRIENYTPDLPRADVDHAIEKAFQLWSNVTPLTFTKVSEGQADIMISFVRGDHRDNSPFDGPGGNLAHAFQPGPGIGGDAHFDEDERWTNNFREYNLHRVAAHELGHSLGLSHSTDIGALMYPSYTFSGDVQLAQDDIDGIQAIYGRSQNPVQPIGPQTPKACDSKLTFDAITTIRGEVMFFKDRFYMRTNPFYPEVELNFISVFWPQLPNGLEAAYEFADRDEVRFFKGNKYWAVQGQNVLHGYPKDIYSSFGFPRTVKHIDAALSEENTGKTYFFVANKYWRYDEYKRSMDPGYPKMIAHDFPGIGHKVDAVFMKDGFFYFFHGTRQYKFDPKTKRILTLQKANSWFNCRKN

[3] = molecular target: T3, COX-1 (Ovis aries, UniProt P05979); assay: Fluorometric COX-1 inhibitor assay; format: biochemical, human
T3 construct: purchased Abcam (Cambridge, UK)
T3 sequence (P05979 25-600): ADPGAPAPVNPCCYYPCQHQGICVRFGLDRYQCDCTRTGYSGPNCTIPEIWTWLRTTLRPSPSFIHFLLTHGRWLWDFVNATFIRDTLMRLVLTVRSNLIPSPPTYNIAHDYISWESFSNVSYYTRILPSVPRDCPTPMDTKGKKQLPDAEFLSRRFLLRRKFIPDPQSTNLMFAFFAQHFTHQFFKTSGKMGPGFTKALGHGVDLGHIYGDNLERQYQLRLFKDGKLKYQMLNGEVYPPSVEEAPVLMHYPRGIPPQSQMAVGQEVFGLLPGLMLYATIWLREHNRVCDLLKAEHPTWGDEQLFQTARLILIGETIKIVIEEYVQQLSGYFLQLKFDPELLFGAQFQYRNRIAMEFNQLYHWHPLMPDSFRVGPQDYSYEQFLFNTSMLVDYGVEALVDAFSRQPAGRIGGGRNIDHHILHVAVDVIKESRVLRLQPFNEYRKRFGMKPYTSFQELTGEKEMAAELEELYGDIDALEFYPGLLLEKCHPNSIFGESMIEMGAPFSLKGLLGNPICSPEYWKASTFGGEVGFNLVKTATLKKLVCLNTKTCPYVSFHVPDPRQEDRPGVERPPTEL

[4] = molecular target: T4, TACE (Homo sapiens, UniProt P78536); assay: TACE inhibitor screening kit; format: biochemical; settings: 100 μM; read-out: % inhibition TACE
T4 construct: purchased Sigma-Aldrich (Saint Louis, MO)

[5] = molecular target: T5, MMP-2 (Homo sapiens, UniProt P08253); assay: MMP-2 inhibition assay; format: biochemical; settings: 100 μM; read-out: % inhibition MMP-2
T5 construct: purchased AnaSpec (Fremont, CA, USA)
T5 sequence (P08253 110-660): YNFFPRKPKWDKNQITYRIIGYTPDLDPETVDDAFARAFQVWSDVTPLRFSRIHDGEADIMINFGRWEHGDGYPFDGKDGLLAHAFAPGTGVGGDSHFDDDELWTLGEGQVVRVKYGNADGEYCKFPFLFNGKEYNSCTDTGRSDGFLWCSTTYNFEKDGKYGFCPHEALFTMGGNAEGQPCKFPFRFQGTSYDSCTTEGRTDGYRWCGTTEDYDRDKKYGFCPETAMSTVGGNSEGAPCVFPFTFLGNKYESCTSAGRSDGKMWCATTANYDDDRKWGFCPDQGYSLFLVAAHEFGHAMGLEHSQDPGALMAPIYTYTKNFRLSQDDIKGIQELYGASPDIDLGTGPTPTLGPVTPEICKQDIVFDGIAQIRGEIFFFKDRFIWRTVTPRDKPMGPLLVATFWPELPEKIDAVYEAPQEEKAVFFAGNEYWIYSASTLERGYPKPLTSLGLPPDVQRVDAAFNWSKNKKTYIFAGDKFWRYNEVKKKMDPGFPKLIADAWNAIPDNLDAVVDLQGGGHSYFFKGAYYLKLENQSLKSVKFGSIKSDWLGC

[6] = Calu-3 permeability; format: in vitro ADME; settings: human
[7] = Metabolic stability in human liver S9 fraction; format: in vitro ADME
[8] = molecular target: T6, MMP-3 (Homo sapiens, UniProt P08254); assay: MMP-3 inhibition assay; format: biochemical; settings: 100 μM; read-out: % inhibition MMP-3
T6 construct: purchased AnaSpec (Fremont, CA, USA)

[9] = molecular target: T7, HDAC-8 (Homo sapiens, UniProt Q9BY41); assay: HDAC-8 inhibitor screening kit; format: biochemical
T7 construct: purchased Sigma-Aldrich (Saint Louis, MO)
T7 sequence (Q9BY41 1-377): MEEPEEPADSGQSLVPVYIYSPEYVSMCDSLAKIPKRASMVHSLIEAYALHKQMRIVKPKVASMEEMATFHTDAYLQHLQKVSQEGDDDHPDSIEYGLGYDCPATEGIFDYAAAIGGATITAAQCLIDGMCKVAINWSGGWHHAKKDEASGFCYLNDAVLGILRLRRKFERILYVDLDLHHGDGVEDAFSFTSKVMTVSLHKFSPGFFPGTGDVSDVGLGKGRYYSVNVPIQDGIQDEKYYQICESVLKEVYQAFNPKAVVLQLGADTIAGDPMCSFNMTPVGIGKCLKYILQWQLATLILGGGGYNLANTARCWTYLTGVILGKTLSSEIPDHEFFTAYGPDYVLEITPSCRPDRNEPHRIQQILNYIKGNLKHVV

[10] = molecular target: T8, HDAC-3 (Homo sapiens, UniProt O15379); assay: HDAC-3 inhibitor screening kit; format: biochemical
T8 construct: purchased Sigma-Aldrich (Saint Louis, MO)

[11] = Lipophilicity determination (LogD7.4, HPLC-MS); format: physicochemical; settings: pH 7.4, pH 7.4, chromatographic
Experimental: Lipophilicity determination. LogD7.4 was analyzed using an HPLC−MS based method.50 The retention time of 12 compounds with known LogD7.4 was determined and plotted toward their LogD7.4. Linear regression was used to determine the LogD7.4 of unknown compounds. Analysis was performed using a Dionex Ultimate 3000 HPLC system coupled to a TSQ Quantum Access MAX (Thermo Fisher, Dreieich, Germany) with the following conditions: EC150/2 NUCLEODUR C18 Pyramid column, 5 μM (Macherey Nagel, Düren, Germany); eluent A: 50 mM NH4OAc pH 7.4, eluent B: acetonitrile, and flow: 0.6 mL/min.

[12] = Metabolic stability in mouse liver S9 fraction; format: in vitro ADME
[13] = Plasma stability, mouse; format: in vitro ADME; settings: mouse plasma; read-out: Plasma T1/2 Mouse
[14] = tested on: HEK293; settings: human, 48 h, 100 µM
Experimental: Culturing of HepG2, A549 and HEK293 cells. The human hepatocellular carcinoma cell line HepG2, the lung adenocarcinoma cell line A549 and Human Embryonic (HEK) 293 cells were cultured in Dulbecco's Modified Eagle Medium (DMEM), containing 10% Fetal Bovine Serum
(FBS) and 1% penicillin-streptomycin mixture. Cells were maintained according to standard cell
Cytotoxicity assay. An MTT-based assay was employed to evaluate the viability of HepG2,
HEK293 and A549 cells after challenge with selected LasB inhibitors and performed as described

[15] = molecular target: ColH-PD (Hathewaya histolytica, UniProt Q46085); assay: biochemical; format: biochemical, Clostridium histolyticum; settings: read-out: % inhibition ColH-PD @1 µM
Sequence of ColH-PD (Q46085 331-721 limits assumed): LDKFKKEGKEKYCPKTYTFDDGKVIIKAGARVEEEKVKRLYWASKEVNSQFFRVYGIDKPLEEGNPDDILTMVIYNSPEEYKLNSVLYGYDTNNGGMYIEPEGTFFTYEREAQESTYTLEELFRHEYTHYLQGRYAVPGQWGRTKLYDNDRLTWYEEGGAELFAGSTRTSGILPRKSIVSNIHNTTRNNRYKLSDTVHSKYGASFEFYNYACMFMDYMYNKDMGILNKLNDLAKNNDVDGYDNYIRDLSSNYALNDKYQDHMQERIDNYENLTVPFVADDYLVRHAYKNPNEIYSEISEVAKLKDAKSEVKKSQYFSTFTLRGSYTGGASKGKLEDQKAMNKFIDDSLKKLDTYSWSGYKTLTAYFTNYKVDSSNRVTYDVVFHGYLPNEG

T8 sequence (O15379 whole entry): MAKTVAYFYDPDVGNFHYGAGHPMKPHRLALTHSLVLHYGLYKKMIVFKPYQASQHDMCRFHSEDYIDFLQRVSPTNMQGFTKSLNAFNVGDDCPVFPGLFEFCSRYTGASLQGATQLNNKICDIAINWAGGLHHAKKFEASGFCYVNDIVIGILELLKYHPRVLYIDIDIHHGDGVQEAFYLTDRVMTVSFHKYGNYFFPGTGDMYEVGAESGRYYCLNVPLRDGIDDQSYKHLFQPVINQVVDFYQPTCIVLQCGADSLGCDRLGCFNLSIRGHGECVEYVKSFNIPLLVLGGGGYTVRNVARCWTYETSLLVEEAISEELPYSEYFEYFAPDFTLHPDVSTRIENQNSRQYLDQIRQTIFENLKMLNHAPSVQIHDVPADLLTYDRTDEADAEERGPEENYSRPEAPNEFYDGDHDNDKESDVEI
T8 sequence (Q9Y618 395-489 partner limits assumed): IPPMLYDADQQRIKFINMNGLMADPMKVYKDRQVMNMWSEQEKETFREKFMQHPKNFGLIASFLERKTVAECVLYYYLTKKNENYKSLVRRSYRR
T6 sequence (P08254 100-477): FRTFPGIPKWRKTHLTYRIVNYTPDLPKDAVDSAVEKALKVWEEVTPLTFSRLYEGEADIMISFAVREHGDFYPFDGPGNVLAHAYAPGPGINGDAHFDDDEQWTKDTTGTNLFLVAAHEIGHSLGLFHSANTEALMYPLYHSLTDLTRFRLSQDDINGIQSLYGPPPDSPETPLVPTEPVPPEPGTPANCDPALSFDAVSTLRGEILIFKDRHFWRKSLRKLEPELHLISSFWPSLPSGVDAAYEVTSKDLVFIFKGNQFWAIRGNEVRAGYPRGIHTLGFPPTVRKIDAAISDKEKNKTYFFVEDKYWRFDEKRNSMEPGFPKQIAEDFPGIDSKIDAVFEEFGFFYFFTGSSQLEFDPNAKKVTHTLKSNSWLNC
T4 sequence (P78536 215-824): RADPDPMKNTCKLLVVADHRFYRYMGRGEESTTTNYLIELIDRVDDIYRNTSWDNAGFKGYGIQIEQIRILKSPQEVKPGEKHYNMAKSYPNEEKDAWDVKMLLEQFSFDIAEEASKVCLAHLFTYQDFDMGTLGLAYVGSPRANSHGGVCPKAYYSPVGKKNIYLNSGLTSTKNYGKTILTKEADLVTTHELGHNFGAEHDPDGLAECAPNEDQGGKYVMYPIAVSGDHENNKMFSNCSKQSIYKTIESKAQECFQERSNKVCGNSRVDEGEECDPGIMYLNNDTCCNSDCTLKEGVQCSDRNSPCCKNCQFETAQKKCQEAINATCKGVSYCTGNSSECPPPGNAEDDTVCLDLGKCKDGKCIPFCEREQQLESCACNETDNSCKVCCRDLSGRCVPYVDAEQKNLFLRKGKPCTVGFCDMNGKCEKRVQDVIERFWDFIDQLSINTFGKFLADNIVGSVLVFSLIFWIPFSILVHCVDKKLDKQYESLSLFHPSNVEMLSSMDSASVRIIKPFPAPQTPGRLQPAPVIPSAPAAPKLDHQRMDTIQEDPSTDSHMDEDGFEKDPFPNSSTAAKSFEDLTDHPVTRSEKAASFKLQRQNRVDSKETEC
T1 sequence (Q02RJ6 198-498): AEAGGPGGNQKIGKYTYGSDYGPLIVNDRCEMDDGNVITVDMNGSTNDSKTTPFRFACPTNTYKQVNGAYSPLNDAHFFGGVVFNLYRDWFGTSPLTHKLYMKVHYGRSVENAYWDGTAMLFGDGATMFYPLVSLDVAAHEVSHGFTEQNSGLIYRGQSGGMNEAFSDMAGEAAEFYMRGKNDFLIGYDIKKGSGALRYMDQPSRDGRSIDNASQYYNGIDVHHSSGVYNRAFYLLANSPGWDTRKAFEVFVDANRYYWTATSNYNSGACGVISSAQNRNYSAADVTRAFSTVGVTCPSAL

## CC(=O)c1ccc(NC(=O)CP(=O)(O)O)cc1 [Compound 2]
[1]; read-out: % LasB inhibition @600 µM
  inhibition at 600 µM: 33 ± 4%

## Cc1ccc(NC(=O)[C@H](CC(C)C)NC(=O)OC(C)(C)C)cc1 [Compound 3a]
[1]
  inhibition at 100 µM: < 10%

## Cc1ccc(NC(=O)[C@@H](N)CC(C)C)cc1 [Compound 3b]
[1]
  inhibition at 100 µM: < 10%

## Cc1ccc(NC(=O)C(CC(C)C)OS(N)(=O)=O)cc1 (stereo not shown) [Compound 3c]
[1]
  IC50: 53000 ± 4000 nM

## CCOC(=O)C(CC(C)C)C(=O)Nc1ccc(C)cc1 (stereo not shown) [Compound 3d]
[1]
  inhibition at 100 µM: < 10%

## Cc1ccc(NC(=O)C(CC(C)C)C(=O)O)cc1 (stereo not shown) [Compound 3e]
[1]
  inhibition at 100 µM: 46 ± 3%

## Cc1ccc(NC(=O)C(CC(C)C)S(=O)(=O)O)cc1 (stereo not shown) [Compound 3i]
[2]
  inhibition at 100 µM: 12 ± 2%
[1]
  IC50: 16000 nM
[3]
  inhibition at 100 µM: < 10%
[4]
  inhibition at 100 µM: < 10%
[5]
  inhibition at 100 µM: < 10%
[6]
  Papp at 300 min: 0.47 ± 0.36 ×10⁻⁶ cm/s
[7]
  microsomal CLint at 1 μM: < 5.8 µL/min/mg
[8]
  inhibition at 100 µM: < 10%
[9]
  inhibition at 100 µM: < 10%
[10]
  inhibition at 100 µM: < 10%
[11]
  chromatographic logD: -0.64
[12]
  microsomal CLint at 1 μM: < 5.8 µL/min/mg
[13]
  half-life at 1 μM: > 150 min

## Cc1ccc(NC(=O)C(CC(C)C)c2nn[nH]n2)cc1 (stereo not shown) [Compound 3j]
[1]
  inhibition at 100 µM: < 10%

## Cc1ccc(NC(=O)C(CC(C)C)n2ccnc2)cc1 (stereo not shown) [Compound 3k]
[1]
  inhibition at 100 µM: 14 ± 4%

## Cc1ccc(NC(=O)C(CC(C)C)n2ccnn2)cc1 (stereo not shown) [Compound 3l]
[2]
  inhibition at 100 µM: < 10%
[3]
  inhibition at 100 µM: < 10%
[4]
  inhibition at 100 µM: < 10%
[5]
  inhibition at 100 µM: < 10%
[6]
  Papp at 300 min: 17 ± 1 ×10⁻⁶ cm/s
[7]
  microsomal CLint at 1 μM: 8.8 ± 1.2 µL/min/mg
[8]
  inhibition at 100 µM: < 10%
[9]
  inhibition at 100 µM: < 10%
[10]
  inhibition at 100 µM: < 10%
[11]
  chromatographic logD: > 1.8
[12]
  microsomal CLint at 1 μM: 90 ± 9 µL/min/mg
[13]
  half-life at 1 μM: > 150 min

## Cc1ccc(NC(=O)C(CC(C)C)n2nccn2)cc1 (stereo not shown) [Compound 3m]
[2]
  inhibition at 100 µM: < 10%
[3]
  inhibition at 100 µM: < 10%
[4]
  inhibition at 100 µM: < 10%
[5]
  inhibition at 100 µM: < 10%
[6]
  Papp at 300 min: 18 ± 1 ×10⁻⁶ cm/s
[7]
  microsomal CLint at 1 μM: 18.5 ± 0.9 µL/min/mg
[8]
  inhibition at 100 µM: < 10%
[9]
  inhibition at 100 µM: < 10%
[10]
  inhibition at 100 µM: < 10%
[11]
  chromatographic logD: > 1.8
[12]
  microsomal CLint at 1 μM: 356 ± 45 µL/min/mg
[14]
  % growth inhibition HEK293: 21 ± 1%
[13]
  half-life at 1 μM: > 150 min

## Cc1ccc(NC(=O)C(CC(C)C)n2cncn2)cc1 (stereo not shown) [Compound 3n]
[1]
  inhibition at 100 µM: < 10%

## CCCC(C(=O)Nc1ccc(OC)cc1)P(=O)(O)O (stereo not shown) [Compound 4ab]
[1]
  IC50: 1110 nM

## CCCC(C(=O)Nc1ccc(C(C)=O)cc1)P(=O)(O)O (stereo not shown) [Compound 4ad]
[1]
  IC50: 870 ± 30 nM

## CC(C)CC(C(=O)Nc1ccc(Cl)c(Cl)c1)P(=O)(O)O (stereo not shown) [Compound 4c]
[1]
  IC50: 25.7 ± 4.1 nM
[1]; vs 4g
  fold more active than 4-acetyl (4g): 1.6 fold
[15]
  inhibition at 1 µM: < 10%
